In general, IC50 refers to the concentration needed to halve the response being measured. Lower therefore signals higher potency.

Bounds are passed on as bounds.

Results on 24 molecules are retold here after US20250223307A1, “MDM2/MDMX DOUBLE-TARGET INHIBITOR COMPOUND, PRODRUG, PHARMACEUTICAL COMPOSITION, AND PREPARATION METHOD THEREFOR AND USE THEREOF” (GLOBAL HEALTH DRUG DISCOVERY INSTITUTE, priority 2022, published 2025).

For assay [1], the system named is Blood cancer cells RS4; 11. The assay can be described thus: CellTiter Glo test: growth inhibition of cells. The class given is cell-based. Conditions: Homo sapiens, 11 cells, 72 h, cell viability. The procedure:
Test of Candidate Compounds on Growth Inhibition of Cells Determined by CellTiter Glo
Blood cancer cells RS4; 11 were inoculated into the 96-well cell culture plate through Multidrop 3000 cells per well, with a volume of 100 μL. The final compound concentration ranged from 50 μM to 0.01 μM at 9 concentration gradients and the DMSO final concentration was 0.1%. The cells and compounds were co-incubated in a cell incubator at 37° C. for 72 h, a CellTiter-Glo Luminescent Cell Viability Assay reagent was added 100 μL/well, the cells and compound were uniformly mixed and incubated at room temperature for 10 min, and Envision reading was performed. A sample treated with 50 μM of a positive compound was taken as a positive control and a sample treated with 100 nL of DMSO was taken as a negative control.
A general note: Cellular ATP, detected with luciferase, serves as a proxy for viable cell number.

The target of assay [2] is MDM2 (Homo sapiens, UniProt Q00987). Nature of the assay: HTRF test: inhibition of MDM2-p53 protein binding. On the technique in general: Time-resolved FRET reads energy transfer from a long-lived donor to a nearby acceptor.
Sequence of MDM2 (Q00987 2-138): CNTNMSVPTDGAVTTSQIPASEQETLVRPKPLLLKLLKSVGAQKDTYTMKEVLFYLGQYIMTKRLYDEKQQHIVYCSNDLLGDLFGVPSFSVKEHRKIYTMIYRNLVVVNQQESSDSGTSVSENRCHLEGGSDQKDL
The target of assay [3] is T1, MDMX (Homo sapiens, UniProt O15151).
T1 sequence (O15151 2-134): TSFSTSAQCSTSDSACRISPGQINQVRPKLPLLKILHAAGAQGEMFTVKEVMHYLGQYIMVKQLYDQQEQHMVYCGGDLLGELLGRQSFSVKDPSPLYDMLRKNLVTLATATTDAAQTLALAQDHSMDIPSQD
Nature of the assay: HTRF test: inhibition of MDMX-p53 protein binding.

On to `O=C1N/C(=C\c2c[nH]c3c(F)c(Cl)ccc23)C(=O)N1C(CO)c1ccc(F)c(F)c1` (stereo not shown) [Compound 86, (Z)-5-((6-chloro-7-fluoro-1H-indol-3-yl)methylene)-3-(1-(3,4-difluorophenyl)-2-hydroxyethyl)imidazolidine-2,4-dione], for which the values for the 50% inhibitory concentration (IC50) in assay [1], in assay [2] and in assay [3] were no more than 1000 nM, 10 to 100 nM and 10 to 100 nM, respectively.

Turning to `O=C1N/C(=C\c2c[nH]c3cc(Cl)ccc23)C(=O)N1[C@@H](COP(=O)(O)O)c1ccc(F)c(F)c1` [Compound 95, (R,Z)-2-(4-((6-chloro-1H-indol-3-yl)methylene)-2,5-dioxoimidazolidin-1-yl)-2-(3,4-difluorophenyl)dihydroethyl phosphate], the IC50 in assay [2] and in assay [3] was 10 to 100 nM in each case.

With `N#Cc1ccc(C(C(=O)NC(CO)CO)N2C(=O)N/C(=C\c3c[nH]c4c(F)c(Cl)ccc34)C2=O)cc1F` (stereo not shown) [Compound 27, (Z)-2-(4-((6-chloro-7-fluoro-1H-indol-3-yl)methylene)-2,5-dioxoimidazolidin-1-yl)-2-(4-cyano-3-fluorophenyl)-N-(1,3-dihydroxypropan-2-yl)acetamide], the half-inhibitory concentration (IC50) in assay [1] is no more than 1000 nM; in assay [2] it was less than 10 nM; in assay [3] it was less than 10 nM.

Regarding `N#Cc1ccc(C(C(=O)NCCO)N2C(=O)N/C(=C\c3c[nH]c4c(F)c(Cl)ccc34)C2=O)cc1F` (stereo not shown) [Compound 41, (Z)-2-(4-((6-chloro-7-fluoro-1H-indol-3-yl)methylene)-2,5-dioxoimidazolidin-1-yl)-2-(4-cyano-3-fluorophenyl)-N-(2-hydroxyethyl)acetamide], the results for the IC50 in assay [1], in assay [2] and in assay [3] were no more than 1000 nM, less than 10 nM and less than 10 nM, respectively.

On to `CCN(CC)CCNC(=O)C(c1ccc(Cl)cc1)N1C(=O)N/C(=C\c2c[nH]c3cc(Cl)ccc23)C1=O` (stereo not shown) [Compound 23, (Z)-2-(4-((6-chloro-1H-indol-3-yl)methylene)-2,5-dioxoimidazolidin-1-yl)-2-(4-chlorophenyl)-N-(2-(diethylamino)ethyl)acetamide], for which the half-maximal inhibitory concentration (IC50) in assay [2] and in assay [3] was 10 to 100 nM each time.

`Cc1c(Cl)ccc2c(/C=C3\NC(=O)N([C@H](CO)c4ccc(C#N)cc4)C3=O)c[nH]c12` [Compound 97, (S,Z)-4-(1-(4-((6-chloro-7-methyl-1H-indol-3-yl)methylene)-2,5-dioxoimidazolidin-1-yl)-2-hydroxyethyl)benzonitrile]: the half-maximal inhibitory concentration (IC50) in assay [1] is no more than 1000 nM; in assay [2], 10 to 100 nM; in assay [3], 10 to 100 nM.

Regarding `O=C1N/C(=C\c2c[nH]c3cc(Cl)ccc23)C(=O)N1C(CO)c1ccc(Cl)c(F)c1` (stereo not shown) [Compound 79, (Z)-5-((6-chloro-1H-indol-3-yl)methylene)-3-(1-(4-chloro-3-fluorophenyl)-2-hydroxyethyl)imidazolidine-2,4-dione], the half-maximal inhibitory concentration (IC50) in assay [1] was no more than 1000 nM; in assay [2], 10 to 100 nM; in assay [3] it was 10 to 100 nM.

In the case of `N#Cc1ccc([C@H](CO)N2C(=O)N/C(=C\c3c[nH]c4cc(Cl)ccc34)C2=O)cc1` [Compound 49, (R,Z)-4-(1-(4-((6-chloro-1H-indol-3-yl)methylene)-2,5-dioxoimidazolidin-1-yl)-2-hydroxyethyl)benzonitrile], the concentration for half-maximal inhibition (IC50) was no more than 1000 nM in assay [1], less than 10 nM in assay [2] and 10 to 100 nM in assay [3].

Take `O=C1N/C(=C\c2c[nH]c3cc(Cl)ccc23)C(=O)N1Cc1ccc(F)c(F)c1` [Compound 1, (Z)-5-((6-chloro-1H-indol-3-yl)methylene)-3-(3,4-difluorobenzyl)imidazolidine-2,4-dione]: the IC50 fell in the range of 1000 to 10000 nM in assay [1], 10 to 100 nM in assay [2] and 10 to 100 nM in assay [3].

On to `N#Cc1ccc(CN2C(=O)N/C(=C\c3c[nH]c4c(OCF)c(Cl)ccc34)C2=O)cc1F` [Compound 11, (Z)-4-((4-((6-chloro-7-(fluoromethoxyl)-1H-indol-3-yl)methylene)-2,5-dioxoimidazolidin-1-yl)methyl)-2-fluorobenzonitrile], for which the IC50 in assay [1] is 1000 to 10000 nM; in assay [2], less than 10 nM; in assay [3], 10 to 100 nM.

Regarding `N#Cc1ccc(CN2C(=O)N/C(=C\c3c[nH]c4c(F)c(Cl)ccc34)C2=O)cc1F` [Compound 14, (Z)-4-((4-((6-chloro-7-fluoro-1H-indol-3-yl)methylene)-2,5-dioxoimidazolidin-1-yl)methyl)-2-fluorobenzonitrile], the IC50 was no more than 1000 nM in assay [1], less than 10 nM in assay [2] and less than 10 nM in assay [3].

Take `N#Cc1ccc(C(C(=O)NCCO)N2C(=O)N/C(=C\c3c[nH]c4cc(Cl)ccc34)C2=O)cc1` (stereo not shown) [Compound 61, (Z)-2-(4-((6-chloro-1H-indol-3-yl)methylene)-2,5-dioxoimidazolidin-1-yl)-2-(4-cyanophenyl)-N-(2-hydroxyethyl)acetamide]: the results for the IC50 in assay [1], in assay [2] and in assay [3] were 1000 to 10000 nM, less than 10 nM and 10 to 100 nM, respectively.

In the case of `COc1c(Cl)ccc2c(/C=C3\NC(=O)N(C(C)c4ccc(F)c(F)c4)C3=O)c[nH]c12` (stereo not shown) [Compound 25, (Z)-5-((6-chloro-7-methoxyl-1H-indol-3-yl)methylene)-3-(1-(3,4-difluorophenyl)ethyl)imidazolidine-2,4-dione], the IC50 in assay [2] and in assay [3] was 10 to 100 nM throughout.

`O=C1N/C(=C\c2c[nH]c3c(F)c(Cl)ccc23)C(=O)N1C(CCCO)c1ccc(Cl)cc1` (stereo not shown) [Compound 109, (Z)-5-((6-chloro-7-fluoro-1H-indol-3-yl)methylene)-3-(1-(4-chlorophenyl)-4-hydroxybutyl)imidazolidine-2,4-dione]: the IC50 in assay [1] is no more than 1000 nM.

In assay [1], `O=C1N/C(=C\c2c[nH]c3c(F)c(Cl)ccc23)C(=O)N1C(CCO)c1ccc(Cl)cc1` (stereo not shown) [Compound 108, (Z)-5-((6-chloro-7-fluoro-1H-indol-3-yl)methylene)-3-(1-(4-chlorophenyl)-3-hydroxypropyl)imidazolidine-2,4-dione] showed a half-maximal inhibitory concentration (IC50) of no more than 1000 nM.

As to `O=C1N/C(=C\c2c[nH]c3cc(Cl)ccc23)C(=O)N1[C@H](COP(=O)(O)O)c1ccc(F)c(F)c1` [Compound 94, (S,Z)-2-(4-((6-chloro-1H-indol-3-yl)methylene)-2,5-dioxoimidazolidin-1-yl)-2-(3,4-difluorophenyl)dihydroethyl phosphate], the concentration for half-maximal inhibition (IC50) in assay [2] and in assay [3] was less than 10 nM each time.

On to `Cc1c(Cl)ccc2c(/C=C3\NC(=O)N(C(COP(=O)(O)O)c4ccc(F)c(F)c4)C3=O)c[nH]c12` (stereo not shown) [Compound 43, (Z)-2-(4-((6-chloro-7-methyl-1H-indol-3-yl)methylene)-2,5-dioxoimidazolidin-1-yl)-2-(3,4-difluorophenyl)ethyl dihydrophosphate], for which the IC50 in assay [2] and in assay [3] was 10 to 100 nM in each case.

For `Cc1c(Cl)ccc2c(/C=C3\NC(=O)N(C(CO)c4ccc(F)c(F)c4)C3=O)c[nH]c12` (stereo not shown) [Compound 39, (Z)-5-((6-chloro-7-methyl-1H-indol-3-yl)methylene)-3-(1-(3,4-difluorophenyl)-2-hydroxyethyl)imidazolidine-2,4-dione], in assay [1], the IC50 is 1000 to 10000 nM.

Turning to `O=C(NC(CO)CO)C(c1ccc(Cl)cc1)N1C(=O)N/C(=C\c2c[nH]c3cc(Cl)ccc23)C1=O` (stereo not shown) [Compound 22, (Z)-2-(4-((6-chloro-1H-indol-3-yl)methylene)-2,5-dioxoimidazolidin-1-yl)-2-(4-chlorophenyl)-N-(1,3-dihydroxypropan-2-yl)acetamide], the IC50 in assay [2] is less than 10 nM; in assay [3] it was 10 to 100 nM.

Turning to `O=C1N/C(=C\c2c[nH]c3c(Cl)c(Cl)ccc23)C(=O)N1Cc1ccc(F)c(F)c1` [Compound 7, (Z)-5-((6,7-dichloro-1H-indol-3-yl)methylene)-3-(3,4-difluorobenzyl)imidazolidine-2,4-dione], the IC50 in assay [2] and in assay [3] was 10 to 100 nM throughout.

Take `O=C1N/C(=C\c2c[nH]c3c(OCF)c(Cl)ccc23)C(=O)N1Cc1ccc(F)c(F)c1` [Compound 6, (Z)-5-((6-chloro-7-(fluoromethoxyl)-1H-indol-3-yl)methylene)-3-(3,4-difluorobenzyl)imidazolidine-2,4-dione]: the half-inhibitory concentration (IC50) in assay [2] and in assay [3] was 10 to 100 nM in each case.

`Cc1c(Cl)ccc2c(/C=C3\NC(=O)N(C(C(=O)NC(COP(=O)(O)O)COP(=O)(O)O)c4ccc(F)c(F)c4)C3=O)c[nH]c12` (stereo not shown) [Compound 74, (Z)-2-(2-(4-((6-chloro-7-methyl-1H-indol-3-yl)methylene)-2,5-dioxoimidazolidin-1-yl)-2-(3,4-difluorophenyl)acetamido)propane-1,3-diylbis(dihydrophosphate)]: the IC50 is greater than 100 nM in assay [2] and 10 to 100 nM in assay [3].

Consider `Cc1c(Cl)ccc2c(/C=C3\NC(=O)N(C(C(=O)NCCOP(=O)(O)O)c4ccc(F)c(F)c4)C3=O)c[nH]c12` (stereo not shown) [Compound 44, (Z)-2-(2-(4-((6-chloro-7-methyl-1H-indol-3-yl)methylene)-2,5-dioxoimidazolidin-1-yl)-2-(3,4-difluorophenyl)acetamido)dihydroethyl phosphate], for which the half-maximal inhibitory concentration (IC50) in assay [2] and in assay [3] was less than 10 nM each time.

With `Cc1c(Cl)ccc2c(/C=C3\NC(=O)N(C(COP(=O)(O)O)c4ccc(C#N)cc4)C3=O)c[nH]c12` (stereo not shown) [Compound 92, (Z)-2-(4-((6-chloro-7-methyl-1H-indol-3-yl)methylene)-2,5-dioxoimidazolidin-1-yl)-2-(4-cyanophenyl)ethyl dihydrophosphate], the IC50 in assay [2] and in assay [3] was 10 to 100 nM throughout.
